Data from US8859584B2, “TRPV1 antagonists” (AbbVie Inc., priority 2011, dated 2014).
Read-outs that look alike come from different tables or passages of the source.

Experiments:
human TRPV1 [1] = target: T1, human TRPV1 (Homo sapiens, UniProt Q8NER1); experiment: Acid Activation Assay (pH 5.0, FLIPR intracellular Ca2+, recombinant HEK293 cells); assay type: cell-based; details: percentage of maximal pH 5.0-induced response remaining; HEK293 hTRPV1; max concentration 37.5 μM
T1 construct: expressed in transfected cells
Procedure: (ii) Acid Activation Assay
Dulbecco's modified Eagle's medium (DMEM) with 4.5 mg/mL D-glucose, fetal bovine serum, L-glutamine, and 2-morpholinoethanesulfonic acid (MES) were purchased from Sigma-Aldrich Co. (St. Louis, Mo.). […] The FLIPR® Calcium 4 assay kit was purchased from Molecular Devices (Sunnyvale, Calif.).
(§1) Expression plasmids encoding the hTRPV1 cDNA were transfected into HEK293 cells using Lipofectamine®. Forty-eight hours after transfection, the neomycin-resistant cells were selected with growth medium containing 800 μg/mL Geneticin (Life Technologies, formerly Gibco BRL). Surviving individual colonies were isolated and screened for TRPV1 activity. Cells expressing recombinant TRPV1 were maintained at 37° C. in DMEM containing 4 mM L-glutamine, 300 μg/mL G418 (Calbiochem) and 10% fetal bovine serum under a humidified 5% CO2 atmosphere.
The functional activity of compounds at the TRPV1 receptor was determined by measurement of intracellular Ca^2+ levels ([Ca^2+]i) using the Fluorescence Imaging Plate Reader (FLIPR)TETRA®. […] Compound stocks, 10 mM, were prepared in DMSO, and diluted serially across a 384-well plate using a Bravo BenchCel workstation (Agilent Technologies, Santa Clara, Calif.). On the day prior to the experiment, the recombinant HEK293 cells expressing human TRPV1 (hTRPV1) were removed from tissue culture flasks and plated in growth medium into black-walled clear-bottom 384-well Biocoat™ poly-D-lysine assay plates (BD Biosciences, Bedford, Mass.) using a Multidrop® dispenser (ThermoScientific, Waltham, Mass.). […] The plated cells were incubated for 90-120 min in the dark at 25° C. The test compounds dissolved in DMSO were then added to the plates using an Agilent Bravo workstation (Agilent Technologies Inc., Santa Clara, Calif.). Three minutes later, a pH 5.0 solution was added to each well. Reagents were delivered at a rate of 40 μL/sec, and the final assay volume was 80 μL. Acidic pH solutions were prepared by titration of DPBS/MES with 1 N HCl. The intensity of the fluorescence was captured and digitally transferred to an interfaced PC. The maximum peak measured for the concentration range tested was used to calculate the corresponding peak increase in fluorescence over baseline (relative fluorescence units) which was expressed as the percentage (max % remain) of the maximal pH 5.0-induced response.

human TRPV1 [2] = target: T1, human TRPV1; experiment: Capsaicin Activation Assay (FLIPR intracellular Ca2+, recombinant HEK293 cells); assay type: cell-based
Procedure: (i) Capsaicin Activation Assay
Dulbecco's modified Eagle medium (DMEM) (with 4.5 mg/mL glucose) and fetal bovine serum were obtained from Hyclone Laboratories, Inc. (Logan, Utah). Dulbecco's phosphate-buffered saline (DPBS) (with 1 mg/mL glucose and 3.6 mg/l Na pyruvate, without phenol red), L-glutamine, hygromycin B, and Lipofectamine® were obtained from Life Technologies (Grand Island, N.Y.). G418 sulfate was obtained from Calbiochem-Novabiochem Corp. (San Diego, Calif.). Capsaicin (8-methyl-N-vanillyl-6-nonenamide) was obtained from Sigma-Aldrich, Co. (St. Louis, Mo.). Fluo-4 AM (N-[4-[6-[(acetyloxy)-methoxy]-2,7-difluoro-3-oxo-3H-xanthen-9-yl]-2-[2-[2-[bis[2-[(acetyloxy)methoxy]-2-oxyethyl]amino]-5-methylphenoxy]ethoxy]phenyl]-N-[2-[(acetyloxy)methoxy]-2-oxyethyl]-glycine, (acetyloxy)methyl ester) was purchased from Molecular Probes (Eugene, Oreg.).
as §1
The functional activity of compounds at the TRPV1 receptor was determined by measurement of intracellular Ca^2+ levels ([Ca^2+]i) using the Fluorescence Imaging Plate Reader (FLIPR)TETRA®. All compounds were tested over a 12-point one-third-log concentration range. Compound stocks, 10 mM, were prepared in DMSO, and diluted serially across a 384-well plate using a Bravo BenchCel workstation (Agilent Technologies, Santa Clara, Calif.). A stock concentration of capsaicin (10 mM) was made in DMSO, and diluted in DPBS to a final concentration of 200 nM (4×). On the day prior to the experiment, the recombinant HEK293 cells expressing human TRPV1 (hTRPV1) were removed from tissue culture flasks and plated in growth medium into black-walled clear-bottom 384-well Biocoat™ poly-D-lysine assay plates (BD Biosciences, Bedford, Mass.) using a Multidrop® dispenser (ThermoScientific, Waltham, Mass.). […] The plated cells were incubated for 90-120 minutes in the dark at room temperature and then test compound was added to each well. Three minutes later, 200 nM capsaicin (4×) solution was added to each well in an amount sufficient to provide a final assay volume of 80 μL and capsaicin concentration of 50 nM. Fluorescence readings were made at 1 to 5 second intervals over the course of the experimental run. The peak increase in relative fluorescence units (minus baseline) was calculated, and expressed as a percentage of the 50 nM capsaicin (control) response.

[3] = recombinant HEK293 cells expressing hTRPV1, 50 nM capsaicin, read-out: human TRPV1 capsaicin IC50

T1 sequence (Q8NER1 whole entry): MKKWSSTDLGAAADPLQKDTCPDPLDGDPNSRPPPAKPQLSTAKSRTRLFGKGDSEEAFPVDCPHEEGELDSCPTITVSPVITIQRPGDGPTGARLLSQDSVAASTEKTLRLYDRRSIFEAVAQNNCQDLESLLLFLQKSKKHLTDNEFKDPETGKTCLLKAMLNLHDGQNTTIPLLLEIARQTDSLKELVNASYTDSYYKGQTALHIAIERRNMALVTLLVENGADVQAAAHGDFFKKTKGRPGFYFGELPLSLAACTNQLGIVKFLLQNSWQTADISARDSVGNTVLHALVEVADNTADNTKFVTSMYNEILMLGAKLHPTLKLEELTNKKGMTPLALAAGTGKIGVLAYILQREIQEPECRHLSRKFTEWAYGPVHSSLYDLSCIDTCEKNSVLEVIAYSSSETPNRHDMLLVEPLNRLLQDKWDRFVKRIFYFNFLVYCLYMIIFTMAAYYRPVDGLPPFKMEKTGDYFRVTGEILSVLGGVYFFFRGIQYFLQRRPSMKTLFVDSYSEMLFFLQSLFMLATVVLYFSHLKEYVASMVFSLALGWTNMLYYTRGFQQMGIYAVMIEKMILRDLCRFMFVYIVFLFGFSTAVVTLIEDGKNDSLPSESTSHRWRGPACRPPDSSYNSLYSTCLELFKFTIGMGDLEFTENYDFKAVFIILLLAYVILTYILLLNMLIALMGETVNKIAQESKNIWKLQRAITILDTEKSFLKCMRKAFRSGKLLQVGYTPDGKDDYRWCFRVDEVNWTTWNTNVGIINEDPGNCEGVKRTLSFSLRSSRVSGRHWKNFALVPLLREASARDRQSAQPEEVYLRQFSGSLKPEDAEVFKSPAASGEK

human TRPV1 H+ (max % remain) (human TRPV1 [1]) [%]	IC50 (human TRPV1 [2]; [3]) [nM]	IC50 (human TRPV1 [2]) [nM]	Molecule
2	14		O=C(Nc1cccc2c1C[C@@H](O)C2)N[C@@H]1CC(CF)(CF)Oc2cc(C(F)(F)F)ccc21 [Example 74, 1-[(4R)-2,2-bis(fluoromethyl)-7-(trifluoromethyl)-3,4-dihydro-2H-chromen-4-yl]-3-[(2S)-2-hydroxy-2,3-dihydro-1H-inden-4-yl]urea]
83	3500		O=C(Nc1cccc2c1CC(O)C2)NC1c2ccccc2CC1Cc1ccccc1 (stereo not shown) [Example 125, 1-(2-benzyl-2,3-dihydro-1H-inden-1-yl)-3-(2-hydroxy-2,3-dihydro-1H-inden-4-yl)urea]
58	290		O=C(NCC1COc2ccc(F)cc2C1)Nc1cccc2c1C[C@H](O)C2 (stereo partly drawn) [Example 28, 1-[(6-fluoro-3,4-dihydro-2H-chromen-3-yl)methyl]-3-[(2R)-2-hydroxy-2,3-dihydro-1H-inden-4-yl]urea]
72	430		O=C(Nc1cccc2c1CC(O)C2)NC1CC(c2ccc(F)cc2)Oc2ccccc21 (stereo not shown) [Example 119, 1-[2-(4-fluorophenyl)-3,4-dihydro-2H-chromen-4-yl]-3-(2-hydroxy-2,3-dihydro-1H-inden-4-yl)urea]
58	3500		O=C(Nc1ccc(F)c2c1C[C@@H](O)C2)N[C@@H]1CC(CF)(CF)Oc2c(F)cccc21 [Example 170, 1-[(4R)-8-fluoro-2,2-bis(fluoromethyl)-3,4-dihydro-2H-chromen-4-yl]-3-[(2R)-7-fluoro-2-hydroxy-2,3-dihydro-1H-inden-4-yl]urea]
30	33		C[C@]1(CF)C[C@@H](NC(=O)Nc2c(F)ccc3c2C[C@@H](O)C3)c2ccc(Cl)cc2O1 [Example 100, 1-[(2R,4R)-7-chloro-2-(fluoromethyl)-2-methyl-3,4-dihydro-2H-chromen-4-yl]-3-[(2S)-5-fluoro-2-hydroxy-2,3-dihydro-1H-inden-4-yl]urea]
71	14		CC1(C)C[C@@H](NC(=O)Nc2cccc3c2C[C@H](O)C3)c2cccc(OC(F)(F)F)c2O1 [Example 19, 1-[(4R)-2,2-dimethyl-8-(trifluoromethoxy)-3,4-dihydro-2H-chromen-4-yl]-3-[(2R)-2-hydroxy-2,3-dihydro-1H-inden-4-yl]urea]
49	2600		CC1(C)C[C@@H](NC(=O)Nc2ccc(F)c3c2C[C@@H](O)C3)c2cc(F)ccc2O1 [Example 165, 1-[(4R)-6-fluoro-2,2-dimethyl-3,4-dihydro-2H-chromen-4-yl]-3-[(2R)-7-fluoro-2-hydroxy-2,3-dihydro-1H-inden-4-yl]urea]
73	13		CCC1(CC)C[C@@H](NC(=O)Nc2cccc3c2C[C@H](O)C3)c2ccc(F)cc2O1 [Example 52, 1-[(4R)-2,2-diethyl-7-fluoro-3,4-dihydro-2H-chromen-4-yl]-3-[(2R)-2-hydroxy-2,3-dihydro-1H-inden-4-yl]urea]
7	2800		CC1(C)C[C@@H](NC(=O)Nc2ccc(F)c3c2C[C@H](O)C3)c2cc(F)ccc2O1 [Example 146, 1-[(4R)-6-fluoro-2,2-dimethyl-3,4-dihydro-2H-chromen-4-yl]-3-[(2S)-7-fluoro-2-hydroxy-2,3-dihydro-1H-inden-4-yl]urea]
57	41000		O=C(Nc1cccc2c1C[C@H](O)C2)N[C@H]1CCOc2cc(OC(F)(F)F)ccc21 [Example 93, 1-[(2R)-2-hydroxy-2,3-dihydro-1H-inden-4-yl]-3-[(4S)-7-(trifluoromethoxy)-3,4-dihydro-2H-chromen-4-yl]urea]
13	500		O=C(Nc1cccc2c1C[C@@H](O)C2)N[C@H]1CC(CF)(CF)Oc2cc(Cl)ccc21 [Example 98, 1-[(4S)-7-chloro-2,2-bis(fluoromethyl)-3,4-dihydro-2H-chromen-4-yl]-3-[(2S)-2-hydroxy-2,3-dihydro-1H-inden-4-yl]urea]
58	1100		O=C(Nc1cccc2c1C[C@H](O)C2)N[C@H]1CC(CF)(CF)Oc2cc(Cl)ccc21 [Example 97, 1-[(4S)-7-chloro-2,2-bis(fluoromethyl)-3,4-dihydro-2H-chromen-4-yl]-3-[(2R)-2-hydroxy-2,3-dihydro-1H-inden-4-yl]urea]
63	570		O=C(Nc1cccc2c1C[C@H](O)C2)N[C@@H]1CC(CF)(CF)Oc2ccc(F)cc21 [Example 57, 1-[(4R)-6-fluoro-2,2-bis(fluoromethyl)-3,4-dihydro-2H-chromen-4-yl]-3-[(2R)-2-hydroxy-2,3-dihydro-1H-inden-4-yl]urea]
61	140		O=C(Nc1cccc2c1CC(O)C2)NC1CC2(CCCCC2)Oc2ccccc21 (stereo not shown) [Example 123, 1-(3,4-dihydrospiro[chromene-2,1′-cyclohexan]-4-yl)-3-(2-hydroxy-2,3-dihydro-1H-inden-4-yl)urea]
50	1200		O=C(Nc1cccc2c1C[C@@H](O)C2)N[C@@H]1CC(CF)(CF)Oc2c(F)cccc21 [Example 87, 1-[(4R)-8-fluoro-2,2-bis(fluoromethyl)-3,4-dihydro-2H-chromen-4-yl]-3-[(2S)-2-hydroxy-2,3-dihydro-1H-inden-4-yl]urea]
13	80		CN1CC[C@@H](NC(=O)Nc2cccc3c2C[C@@H](O)C3)c2ccc(C(F)(F)F)cc21 [Example 84, 1-[(2S)-2-hydroxy-2,3-dihydro-1H-inden-4-yl]-3-[(4R)-1-methyl-7-(trifluoromethyl)-1,2,3,4-tetrahydroquinolin-4-yl]urea]
36		220	O=C(Nc1ccc(F)c2c1C[C@@H](O)C2)N[C@@H]1CC(CF)(CF)Oc2cc(Cl)ccc21 [Example 133, 1-[(4R)-7-chloro-2,2-bis(fluoromethyl)-3,4-dihydro-2H-chromen-4-yl]-3-[(2R)-7-fluoro-2-hydroxy-2,3-dihydro-1H-inden-4-yl]urea]
75	410		O=C(Nc1cccc2c1C[C@H](O)C2)N[C@@H]1CC2(CCCC2)Oc2ccccc21 [Example 128, 1-[(4R)-3,4-dihydrospiro[chromene-2,1′-cyclopentan]-4-yl]-3-[(2R)-2-hydroxy-2,3-dihydro-1H-inden-4-yl]urea]

Molecule	human TRPV1 H+ (max % remain) (human TRPV1 [1]) [%]	IC50 (human TRPV1 [2]; [3]) [nM]	IC50 (human TRPV1 [2]) [nM]
1-[(2R)-7-fluoro-2-hydroxy-2,3-dihydro-1H-inden-4-yl]-3-[(4R)-8-(trifluoromethyl)-3,4-dihydro-2H-chromen-4-yl]urea [Example 173]	39	210	
